Laboratory results from article PMC2819846 (Mutation research, 2008).
Like-named read-outs stand apart in the source and are kept apart here.

What was measured:
[1] = system: DNA from Salmonella TA100; assay: Abasic sites by aldehydic-site assay in DNA of treated TA100; format: cell-based; conditions: DMSO 5.9 ± 0.33
strain TA100 = format: cell-based, Salmonella; conditions: TA100 liquid-suspension; for Rev/10^6 survivors: DMSO 0.8; for Percent survival: DMSO 100
Salmonella TA104 = assay: Salmonella plate-incorporation mutagenicity assay, strain TA104, with S9 mix; format: cell-based; conditions: for Mutagenic potency, Revertants/µg ± S.E., TA104 / Mutagenicity call TA104: plate-incorporation, +S9
Salmonella TA100 = assay: Salmonella plate-incorporation mutagenicity assay, strain TA100; format: cell-based; conditions: for Mutagenic potency, Revertants/µg ± S.E., TA100 / Mutagenicity call TA100: plate-incorporation, +S9
[2] = system: DNA from Salmonella TA100; assay: Stable DNA adducts by 32P-postlabeling in DNA of treated TA100; format: cell-based; conditions: DMSO 0.024 ± 0.000
Salmonella TA98 = assay: Salmonella plate-incorporation mutagenicity assay, strain TA98, with S9 mix; format: cell-based
Salmonella = conditions: cited from earlier work
[3] = TA104 +S9, Test 3, 0.5 µg/plate, zero-dose 402/395/336
[4] = TA104 +S9, Test 3, 1 µg/plate, zero-dose 402/395/336
[5] = TA104 +S9, Test 3, 5 µg/plate, zero-dose 402/395/336
[6] = TA100 +S9, Test 1, 2 µg/plate, zero-dose 99/110/110
[7] = TA100 +S9, Test 1, 5 µg/plate, zero-dose 99/110/110
[8] = TA100 +S9, Test 1, 10 µg/plate, zero-dose 99/110/110
[9] = TA100 +S9, Test 1, 20 µg/plate, zero-dose 99/110/110
[10] = TA100 +S9, Test 1, 40 µg/plate, zero-dose 99/110/110
[11] = TA100 +S9, Test 1, 80 µg/plate, zero-dose 99/110/110
[12] = TA100 +S9, Test 2, 0.5 µg/plate, zero-dose 84/78/80
[13] = TA100 +S9, Test 2, 1 µg/plate, zero-dose 84/78/80
[14] = TA100 +S9, Test 2, 5 µg/plate, zero-dose 84/78/80
[15] = TA100 +S9, Test 3, 0.5 µg/plate, zero-dose 127/118/125
[16] = TA100 +S9, Test 3, 1 µg/plate, zero-dose 127/118/125
[17] = TA100 +S9, Test 3, 5 µg/plate, zero-dose 127/118/125
[18] = TA98 +S9, Test 1, 2 µg/plate, zero-dose 33/40/39
[19] = TA98 +S9, Test 1, 5 µg/plate, zero-dose 33/40/39
[20] = TA98 +S9, Test 1, 10 µg/plate, zero-dose 33/40/39
[21] = TA98 +S9, Test 1, 20 µg/plate, zero-dose 33/40/39
[22] = TA98 +S9, Test 1, 40 µg/plate, zero-dose 33/40/39
[23] = TA98 +S9, Test 1, 80 µg/plate, zero-dose 33/40/39
[24] = TA98 +S9, Test 2, 5 µg/plate, zero-dose 43/41/30
[25] = TA98 +S9, Test 3, 5 µg/plate, zero-dose 49/50/50

Structure (SMILES): c1ccc2c(c1)ccc1ccc3ccccc3c12 [B[c]P, Benzo[c]phenanthrene]
- Abasic sites/10^5 nucleotides ± S.E ([1]; TA100, 20 µg/ml): 3.3 ± 0.12 sites/10^5 nucleotides
- Fold increase in mutant frequency relative to DMSO-treated cells (strain TA100; 20 µg/ml): 3.9 fold
- Rev/10^6 survivors (strain TA100; 20 µg/ml): 3.1 Rev/10^6 survivors
- Percent survival (strain TA100; 20 µg/ml): 71%
- Rev/plate (Salmonella TA104; TA104 +S9, Test 2, 0.5 µg/plate, zero-dose 276/260/270): 432/407
- Rev/plate (Salmonella TA104; TA104 +S9, Test 2, 1 µg/plate, zero-dose 276/260/270): 504/506
- Rev/plate (Salmonella TA104; TA104 +S9, Test 2, 2 µg/plate, zero-dose 276/260/270): 570/609
- Rev/plate (Salmonella TA104; TA104 +S9, Test 2, 5 µg/plate, zero-dose 276/260/270): 753/894
- Rev/plate (Salmonella TA104; [3]): 523/486
- Rev/plate (Salmonella TA104; [4]): 636/581
- Rev/plate (Salmonella TA104; TA104 +S9, Test 3, 2 µg/plate, zero-dose 402/395/336): 588/660
- Rev/plate (Salmonella TA104; [5]): 850/824
- Mutagenic potency, Revertants/µg ± S.E., TA104 (Salmonella TA104): 241 ± 25 rev/µg
- Mutagenicity call TA104 (Salmonella TA104): (+) (Called mutagenic (+) based on showing reproducible, dose-related increases in rev/plate that reached or exceeded 2-fold relative to zero-dose controls)
- Rev/plate (Salmonella TA100; [6]): 251 rev/plate
- Rev/plate (Salmonella TA100; [7]): 388 rev/plate
- Rev/plate (Salmonella TA100; [8]): 467 rev/plate
- Rev/plate (Salmonella TA100; [9]): 503 rev/plate
- Rev/plate (Salmonella TA100; [10]): 494 rev/plate
- Rev/plate (Salmonella TA100; [11]): 354 rev/plate
- Rev/plate (Salmonella TA100; [12]): 97/85
- Rev/plate (Salmonella TA100; [13]): 114/78
- Rev/plate (Salmonella TA100; TA100 +S9, Test 2, 2 µg/plate, zero-dose 84/78/80): 117/143
- Rev/plate (Salmonella TA100; [14]): 300/204
- Rev/plate (Salmonella TA100; [15]): 180/190
- Rev/plate (Salmonella TA100; [16]): 250/217
- Rev/plate (Salmonella TA100; TA100 +S9, Test 3, 2 µg/plate, zero-dose 127/118/125): 300/303
- Rev/plate (Salmonella TA100; [17]): 510/499
- Mutagenic potency, Revertants/µg ± S.E., TA100 (Salmonella TA100): 56.4 ± 12.1 rev/µg
- Mutagenicity call TA100 (Salmonella TA100): (+) (Called mutagenic (+) based on showing reproducible, dose-related increases in rev/plate that reached or exceeded 2-fold relative to zero-dose controls)
- Stable adducts/10^8 nucleotides ± S.E ([2]; TA100, 20 µg/ml): 1.600 ± 0.040 adducts/10^8 nucleotides
- Rev/plate (Salmonella TA98; [18]): 37 rev/plate
- Rev/plate (Salmonella TA98; [19]): 43 rev/plate
- Rev/plate (Salmonella TA98; [20]): 57 rev/plate
- Rev/plate (Salmonella TA98; [21]): 60 rev/plate
- Rev/plate (Salmonella TA98; [22]): 50 rev/plate
- Rev/plate (Salmonella TA98; [23]): 35 rev/plate
- Rev/plate (Salmonella TA98; TA98 +S9, Test 2, 0.5 µg/plate, zero-dose 43/41/30): 44/36
- Rev/plate (Salmonella TA98; TA98 +S9, Test 2, 1 µg/plate, zero-dose 43/41/30): 41/35
- Rev/plate (Salmonella TA98; TA98 +S9, Test 2, 2 µg/plate, zero-dose 43/41/30): 38/37
- Rev/plate (Salmonella TA98; [24]): 56/50
- Rev/plate (Salmonella TA98; TA98 +S9, Test 3, 0.5 µg/plate, zero-dose 49/50/50): 49/36
- Rev/plate (Salmonella TA98; TA98 +S9, Test 3, 1 µg/plate, zero-dose 49/50/50): 52/54
- Rev/plate (Salmonella TA98; TA98 +S9, Test 3, 2 µg/plate, zero-dose 49/50/50): 60/50
- Rev/plate (Salmonella TA98; [25]): 87/61
- Mutagenic potency, Revertants/µg ± S.E., TA98 (Salmonella TA98; plate-incorporation, +S9): 1.2 ± 1.3 rev/µg
- Mutagenicity in Salmonella (early studies) (Salmonella): mutagenic

Structure (SMILES): O[C@@H]1C=Cc2c(ccc3ccc4ccccc4c23)[C@H]1O (racemic) [B[c]P 3,4-diol, (± )-trans-3,4-Dihydrobenzo[c]phenanthrene 3,4-diol]
- Abasic sites/10^5 nucleotides ± S.E ([1]; TA100, 2 µg/ml): 4.2 ± 0.16 sites/10^5 nucleotides
- Abasic sites/10^5 nucleotides ± S.E ([1]; TA100, 5 µg/ml): 5.3 ± 0.27 sites/10^5 nucleotides
- Percent survival (strain TA100; 2 µg/ml): 56%
- Fold increase in mutant frequency relative to DMSO-treated cells (strain TA100; 5 µg/ml): 23.4 fold
- Rev/10^6 survivors (strain TA100; 5 µg/ml): 18.7 Rev/10^6 survivors
- Percent survival (strain TA100; 5 µg/ml): 20%
- Rev/plate (Salmonella TA104; TA104 +S9, Test 1, 0.5 µg/plate, zero-dose 379/400/370): 770/707
- Rev/plate (Salmonella TA104; TA104 +S9, Test 1, 1 µg/plate, zero-dose 379/400/370): 1007/1137
- Rev/plate (Salmonella TA104; TA104 +S9, Test 1, 2.5 µg/plate, zero-dose 379/400/370): 1618/1616
- Rev/plate (Salmonella TA104; TA104 +S9, Test 1, 5 µg/plate, zero-dose 379/400/370): 1925/2036
- Rev/plate (Salmonella TA104; [3]): 663/615
- Rev/plate (Salmonella TA104; [4]): 923/920
- Rev/plate (Salmonella TA104; TA104 +S9, Test 3, 2.5 µg/plate, zero-dose 402/395/336): 1368/1509
- Rev/plate (Salmonella TA104; [5]): 1781/1775
- Rev/plate (Salmonella TA104; TA104 +S9, Test 4, 0.5 µg/plate, zero-dose 482/455/462): 655/635
- Rev/plate (Salmonella TA104; TA104 +S9, Test 4, 1 µg/plate, zero-dose 482/455/462): 913/888
- Rev/plate (Salmonella TA104; TA104 +S9, Test 4, 2.5 µg/plate, zero-dose 482/455/462): 1375/1312
- Rev/plate (Salmonella TA104; TA104 +S9, Test 4, 5 µg/plate, zero-dose 482/455/462): 1807/1818
- Mutagenic potency, Revertants/µg ± S.E., TA104 (Salmonella TA104): 552 ± 62 rev/µg
- Mutagenicity call TA104 (Salmonella TA104): (+) (Called mutagenic (+) based on showing reproducible, dose-related increases in rev/plate that reached or exceeded 2-fold relative to zero-dose controls)
- Rev/plate (Salmonella TA100; [6]): 694 rev/plate
- Rev/plate (Salmonella TA100; [7]): 1002 rev/plate
- Rev/plate (Salmonella TA100; [8]): 1067 rev/plate
- Rev/plate (Salmonella TA100; [9]): 942 rev/plate
- Rev/plate (Salmonella TA100; [10]): 381 rev/plate
- Rev/plate (Salmonella TA100; [11]): 100 rev/plate
- Rev/plate (Salmonella TA100; [12]): 151/162
- Rev/plate (Salmonella TA100; [13]): 244/241
- Rev/plate (Salmonella TA100; TA100 +S9, Test 2, 2.5 µg/plate, zero-dose 84/78/80): 533/604
- Rev/plate (Salmonella TA100; [14]): 598/153
- Rev/plate (Salmonella TA100; [15]): 335/357
- Rev/plate (Salmonella TA100; [16]): 474/494
- Rev/plate (Salmonella TA100; TA100 +S9, Test 3, 2.5 µg/plate, zero-dose 127/118/125): 848/945
- Rev/plate (Salmonella TA100; [17]): 1216/1218
- Rev/plate (Salmonella TA100; TA100 +S9, Test 4, 0.5 µg/plate, zero-dose 112/140/115): 328/304
- Rev/plate (Salmonella TA100; TA100 +S9, Test 4, 1 µg/plate, zero-dose 112/140/115): 613/577
- Rev/plate (Salmonella TA100; TA100 +S9, Test 4, 2.5 µg/plate, zero-dose 112/140/115): 938/941
- Rev/plate (Salmonella TA100; TA100 +S9, Test 4, 5 µg/plate, zero-dose 112/140/115): 1117/1140
- Mutagenic potency, Revertants/µg ± S.E., TA100 (Salmonella TA100): 268 ± 46 rev/µg
- Mutagenicity call TA100 (Salmonella TA100): (+) (Called mutagenic (+) based on showing reproducible, dose-related increases in rev/plate that reached or exceeded 2-fold relative to zero-dose controls)
- Stable adducts/10^8 nucleotides ± S.E ([2]; TA100, 2 µg/ml): 5.900 ± 0.230 adducts/10^8 nucleotides
- Stable adducts/10^8 nucleotides ± S.E ([2]; TA100, 5 µg/ml): 4.500 ± 0.034 adducts/10^8 nucleotides
- Rev/plate (Salmonella TA98; [18]): 47 rev/plate
- Rev/plate (Salmonella TA98; [19]): 100 rev/plate
- Rev/plate (Salmonella TA98; [20]): 120 rev/plate
- Rev/plate (Salmonella TA98; [21]): 226 rev/plate
- Rev/plate (Salmonella TA98; [22]): 303 rev/plate
- Rev/plate (Salmonella TA98; [23]): 417 rev/plate
- Rev/plate (Salmonella TA98; [24]): 120/112
- Rev/plate (Salmonella TA98; TA98 +S9, Test 2, 10 µg/plate, zero-dose 43/41/30): 180/199
- Rev/plate (Salmonella TA98; TA98 +S9, Test 2, 20 µg/plate, zero-dose 43/41/30): 310/260
- Rev/plate (Salmonella TA98; TA98 +S9, Test 2, 40 µg/plate, zero-dose 43/41/30): 460/414
- Rev/plate (Salmonella TA98; TA98 +S9, Test 2, 80 µg/plate, zero-dose 43/41/30): 492/423
- Rev/plate (Salmonella TA98; [25]): 145/173
- Rev/plate (Salmonella TA98; TA98 +S9, Test 3, 10 µg/plate, zero-dose 49/50/50): 238/242
- Rev/plate (Salmonella TA98; TA98 +S9, Test 3, 20 µg/plate, zero-dose 49/50/50): 350/328
- Rev/plate (Salmonella TA98; TA98 +S9, Test 3, 40 µg/plate, zero-dose 49/50/50): 458/504
- Rev/plate (Salmonella TA98; TA98 +S9, Test 3, 80 µg/plate, zero-dose 49/50/50): 509/597
- Mutagenic potency, Revertants/µg ± S.E., TA98 (Salmonella TA98; plate-incorporation, +S9): 11.1 ± 3.0 rev/µg
- Mutagenicity call TA98 (Salmonella TA98; plate-incorporation, +S9): (+) (Called mutagenic (+) based on showing reproducible, dose-related increases in rev/plate that reached or exceeded 2-fold relative to zero-dose controls)
- Mutagenicity in Salmonella (early studies) (Salmonella): mutagenic

Structure (SMILES): c1ccc2c(c1)ccc1cc3c(cc12)sc1ccccc13 [BPT, benzo[b]phenanthro[2,3-d]thiophene]
- Mutagenicity in Salmonella (Salmonella): mutagenic
